Assay results as given in paper PMC5815658 (Journal of Medicinal Chemistry, 2017).
Converted amounts (≈) assume the structure as drawn. “Also recorded” adds a separate entry of the source. Where two headings read alike, the source gives them in different places.

What was measured:
CRBN-DDB1 complex = target: T1, CRBN-DDB1 complex (Homo sapiens, UniProt Q96SW2); assay: CRBN/DDB1 fluorescence polarization competition assay; format: binding
T1 construct: His6-ZZ-HRV3C (N); made in house; host or cells: Sf9 insect cells (baculovirus co-infection)
Procedure: CRBN/DDB1 Fluorescence Polarization Assay […]
Unless otherwise stated, the aqueous assay buffer contained 0.02 M HEPES((4-(2-hydroxyethyl)-1-piperazineethanesulfonic acid)) pH 8.0, 0.15 M NaCl, 0.5 mM TCEP ((tris(2-carboxyethyl)phosphine)), 0.05% Tween 20. The assay was conducted using 384 well black plates (ProxiPlate F Plus, Perkin-Elmer, Massachusetts, USA).
Plate Reader. […] Fluorescence […]
polarization was measured in units of millipolarization (mP) and are background corrected. Data were plotted and analyzed using […]
All experiments were performed in triplicate unless otherwise stated. Values are quoted as the geometric […]
Each graph is a representative example of a single biological repeat unless otherwise stated.
CRBN/DDB1 Protein Expression & Purification
Protein expression and purification methods adapted from Lopez-Girona et al.5 Full length human CRBN (accession number NM016302) was amplified by PCR & inserted downstream of the polyhedrin promoter of a pFBDM expression vector which had been modified to introduce a N-terminal His6-ZZ-HRV3C tag. Full length human DDB1 (accession number NM001923) was amplified by PCR with primers which introduced a C-terminal StrepTag and inserted downstream of the p10 promoter of a separate pFBDM expression vector. Baculoviruses were generated according to Bac-to-Bac protocols (Invitrogen) and used to co-infect Sf9 cells grown @ 27 °C in shaker flasks using Insect-XPRESS media (Lonza). Cells were harvested 48 hours post infection and frozen. For purification, pellets were thawed & resuspended in 5 volumes of Histrap buffer A (see below) and lysed […]
Superdex 200 (HiLoad 26/600), ResourceQ (6 mL) and finally a second Superdex 200 (HiLoad 26/600) column. All columns were from GE Healthcare and all purification steps were performed @ 4 °C. HisTrap buffer A: 50mM Tris (2-Amino-2-(hydroxymethyl)propane-1,3-diol), 500mM NaCl, 0.5mM TCEP ((tris(2-carboxyethyl)phosphine), 5% glycerol, pH 8.0. HisTrap Buffer B: + 250 mM imidazole. Superdex 200 buffer: 50mM Tris, 200mM NaCl, 0.5mM TCEP, 5% glycerol, pH 8.0. Resource Q buffer A: 50mM Tris, 0.5mM TCEP, 5% Glycerol, pH8.0. Resource Q buffer B + 1M NaCl.
California, USA) to prepare CRBN/DDB1 concentrations from 0.1 to 500 nM in 10 µL final assay volume containing 5 nM FP- […]
point prior to analysis. The KD was calculated using non-linear regression and a one-site specific binding model.
Analysis of competition assay FP-probe bound fraction […]
fb=probe bound fraction, KD=probe dissociation constant, L0=probe concentration, R0=protein concentration, Ki=ligand […]
CRBN/DDB1 Competition Assay
Compounds as solutions in DMSO were dispensed using an ECHO 550 Liquid Handler (Labcyte Inc).
Tracer controls (5 nM FP-probe S18 assay buffer only) and bound tracer controls (5 nM and 80 nM CRBN/DDB1) were included on each assay plate . Plates were incubated overnight at 4 °C before warming to room temperature and fluorescence polarization measured using an EnVision plate reader (Perkin -Elmer, Massachusetts, USA). IC 50 values […]
Table S2. CRBN/DDB1 Control Compounds

[1] = target: T2, pirin protein in SK-OV-3 human ovarian cancer cells (Homo sapiens, UniProt O00625); assay: Pirin depletion in SK-OV-3 cells (immunoblot / capillary electrophoresis immunoassay); format: cell-based; conditions: SK-OV-3 cells, Figure S18
T2 construct: endogenous in cells; host or cells: SK-OV-3
T2 sequence (O00625 1-290): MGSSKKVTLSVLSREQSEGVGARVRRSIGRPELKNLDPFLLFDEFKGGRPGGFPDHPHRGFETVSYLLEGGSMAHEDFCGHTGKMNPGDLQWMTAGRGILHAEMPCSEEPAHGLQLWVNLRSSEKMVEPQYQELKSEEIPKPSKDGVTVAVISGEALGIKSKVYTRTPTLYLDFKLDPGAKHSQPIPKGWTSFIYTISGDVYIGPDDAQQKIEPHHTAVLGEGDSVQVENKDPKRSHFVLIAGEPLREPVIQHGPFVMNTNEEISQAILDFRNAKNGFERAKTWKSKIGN
Procedure: in vivo in athymic mice to increase its tumorigenicity and reliability as a xenograft, and used within 10 passages of banked stocks.
(§1) Prior to use, the cells were analyzed by short tandem repeat (STR) profiling. Polymorphic STR loci were amplified using a polymerase chain reaction (PCR) primer set. The PCR product (each locus being labelled with a different fluorophore) was analyzed simultaneously with size standards using automated fluorescent detection. The number of repeats at 10 different loci (as recommended by the American Type Culture Collection, ATCC) was used to define the STR profile and this was cross-referenced with online databases to confirm authenticity. […]
the ATCC reference line (LGC Promochem, UK). […]
nested PCR protocol (Venor GeM kit, Minerva Biolabs, Germany). Cells were grown in DMEM/10 % FCS, 2 mM glutamine and nonessential amino acids in 5 % CO2.
SK-OV-3 cells were treated as for each experimental condition. Cells were harvested and lysed by scraping in urea lysis buffer (20 mM HEPES pH 8.0, 9 M urea, 1 mM sodium orthovanadate, 2.5 mM sodium pyrophosphate, 1 mM β-glycerophosphate). […]
of samples was determined using a bicinchoninic acid (BCA) protein assay kit (Thermo Fisher Scientific). Western blotting was carried out as previously described.10 Pirin and GAPDH antibodies were obtained from Abcam (ab157212) and Merck […]
Samples were treated, harvested and lysed as described above. A total of 5 μL of 0.2 mg/mL protein was loaded into plates and capillary western analysis was carried out according to the manufacturer’s instructions (ProteinSimple WES). The data was analyzed with the Compass software (ProteinSimple).
Sigma-Aldrich and Cell Signaling Technology, respectively.
10 Sharp SY, Boxall K, Rowlands M, Prodromou C, Roe SM, Maloney A, Powers M, Clarke PA, Box G, Sanderson S, Patterson L, Matthews TP, Cheung KM, Ball K, Hayes A, Raynaud F, Marais R, Pearl L, Eccles S, Aherne W, McDonald E, Workman P. In vitro biological characterization of a novel, synthetic diaryl pyrazole resorcinol class of heat shock protein 90 inhibitors.

[2] = Chemical stability as solid and in DMSO stock solution; format: physicochemical; conditions: room temperature, data not shown
[3] = PDP aqueous stability protocol; conditions: 37 °C, pH 7.4 phosphate buffer
[4] = LogD7.4 determination by RP-HPLC; conditions: pH 7.4
[5] = Kinetic solubility determination by RP-HPLC; conditions: PBS, pH 7.4, aqueous buffer, kinetic from dmso stock
pirin = target: T3, pirin (Homo sapiens, UniProt O00625); assay: Pirin SPR (surface plasmon resonance) binding
T3 sequence (O00625 1-290): T2 sequence (O00625 1-290)

CRBN = target: T4, CRBN (Homo sapiens, UniProt Q96SW2); assay: Rescue of PDP 16 pirin depletion by CRBN-binding competitive ligand in SK-OV-3 cells; format: cell-based; conditions: 10 μM, 4 h pretreatment, then PDP 16 (5 nM) 2 h
T4 construct: endogenous in cells; host or cells: SK-OV-3
Procedure: Cell line: The human ovarian carcinoma cell line (SK-OV-3) was obtained from an ICR collaborator in the 1990s. It was passaged in vivo in athymic mice to increase its tumorigenicity and reliability as a xenograft, and used within 10 passages of banked stocks.
as §1
the ATCC reference line (LGC Promochem, UK). The cells were free of mycoplasma contamination as determined by a sensitive nested PCR protocol (Venor GeM kit, Minerva Biolabs, Germany). […]
Samples were sonicated and centrifuged at 20,000 x g for 15 min and the protein extract (supernatant) collected. The total protein of samples was determined using a bicinchoninic acid (BCA) protein assay kit (Thermo Fisher Scientific). […]
Samples were treated, harvested and lysed as described above. […] The data was analyzed with the Compass software (ProteinSimple). […]

Row | IC50 (CRBN-DDB1 complex; CRBN/DDB1 FP IC50, single repeat N=2, best-fit value, variable slope four parameters) | IC50 (CRBN-DDB1 complex; best-fit value, variable slope four parameters, read-out: CRBN/DDB1 FP IC50, single repeat N=1) | IC50 (CRBN-DDB1 complex; best-fit value, variable slope four parameters, read-out: CRBN/DDB1 FP IC50, single repeat N=3) | Ki (CRBN-DDB1 complex; calculated from geometric mean CRBN-DDB1 IC50 and FP-probe KD) | IC50 (CRBN-DDB1 complex; column statistics, read-out: CRBN/DDB1 FP pIC50, mean of 3 values (unrounded) (converted)) | IC50 (CRBN-DDB1 complex; displacement of thalidomide derived fluorescent probe, geometric mean n = 3, read-out: CRBN/DDB1 FP IC50) | IC50 (CRBN-DDB1 complex; n = 3 independent biological repeats, read-out: CRBN/DDB1 FP pIC50±SEM (converted)) | Compound exposure needed before pirin degradation was observed [1] | Time stable as a solid and in DMSO stock solution [2] | Half-life (aqueous stability) [3] | half-life at 100 µM ([3]; phosphate buffer (PBS), pH 7.4, Half-life (aqueous stability)) | chromatographic logD [4] | solubility kinetic at 120 min [5] | Kd (pirin; Pirin SPR KD, equilibrium analysis, one site specific binding model, geometric mean n = 3) | Kd (pirin; Pirin SPR KD, representative single repeat, best-fit value, one site specific binding) | Kd (pirin; Pirin SPR pKD±SEM, n = 3 independent biological repeats) | Measured Rmax/Theoretical Rmax (pirin; SPR) | SMILES | Depletion of intracellular pirin expression ([1]; 3.0 μM total concentration, up to 48 h) | Rescue of pirin depletion by thalidomide pretreatment (CRBN)
1 | 331 nM | 568 nM | 377 nM | 95 nM | 414 nM | 410 nM | 417 nM | at least 24 h | > 1 month | ~4 h | 4.1 h | 1.9 | 5 µM (≈ 4.85 µg/mL) | 230 nM | 224 nM | 234 nM | 0.40 | O=C(COc1cccc2c1C(=O)N(C1CCC(=O)NC1=O)C2=O)NCCOCCC(=O)N1CCN(Cc2ccc3cc(C(=O)Nc4cc(NC(=O)c5ccc6c(c5)OCCO6)ccc4F)ccc3n2)CC1 (stereo not shown) [PDP 10, N-(5-(2,3-Dihydrobenzo[b][1,4]dioxine-6-carboxamido)-2-fluorophenyl)-2-((4-(3-(2-(2-((2-(2,6-dioxopiperidin-3-yl)-1,3-dioxoisoindolin-4-yl)oxy)acetamido)ethoxy)propanoyl)piperazin-1-yl)methyl)quinoline-6-carboxamide] | clear and time-dependent depletion of intracellular pirin expression | 
2 |  |  |  |  |  |  |  |  |  |  |  |  |  |  |  |  |  | O=C1CCC(N2C(=O)c3ccccc3C2=O)C(=O)N1 (stereo not shown) [Thalidomide] |  | rescues pirin protein depletion; also recorded: successfully rescued pirin depletion
